Experimental data reported in patent US11168095B2, “ASK1 inhibiting agents” (BIOGEN MA INC., priority 2017, dated 2021).
Where two headings read alike, the source gives them in different places.

Assays:
[1] = molecular target: ASK1/MAP3K5 (Homo sapiens (Human), UniProt Q99683); test: ASK1/MAP3K5 assay by Reaction Biology Corp.; format: biochemical
Experimental: ASK1/MAP3K5 was used as the protein kinase and 20 μM of myelin basic protein (MBP) and 10 μM ATP were used as the substrate.

[2] = molecular target: ASK1 T838 auto phosphorylation in HEK-293T cells (Homo sapiens (Human), UniProt Q99683); test: ASK1 (AUTO PHOS T838) assay, MSD format; format: cell-based; settings: HEK 293T cells transfected with ASK1-V5 full length plasmid, compounds 1 hr at 37° C.; read-out: IC50
ASK1 T838 auto phosphorylation in HEK-293T cells, sequence (Q99683 whole entry): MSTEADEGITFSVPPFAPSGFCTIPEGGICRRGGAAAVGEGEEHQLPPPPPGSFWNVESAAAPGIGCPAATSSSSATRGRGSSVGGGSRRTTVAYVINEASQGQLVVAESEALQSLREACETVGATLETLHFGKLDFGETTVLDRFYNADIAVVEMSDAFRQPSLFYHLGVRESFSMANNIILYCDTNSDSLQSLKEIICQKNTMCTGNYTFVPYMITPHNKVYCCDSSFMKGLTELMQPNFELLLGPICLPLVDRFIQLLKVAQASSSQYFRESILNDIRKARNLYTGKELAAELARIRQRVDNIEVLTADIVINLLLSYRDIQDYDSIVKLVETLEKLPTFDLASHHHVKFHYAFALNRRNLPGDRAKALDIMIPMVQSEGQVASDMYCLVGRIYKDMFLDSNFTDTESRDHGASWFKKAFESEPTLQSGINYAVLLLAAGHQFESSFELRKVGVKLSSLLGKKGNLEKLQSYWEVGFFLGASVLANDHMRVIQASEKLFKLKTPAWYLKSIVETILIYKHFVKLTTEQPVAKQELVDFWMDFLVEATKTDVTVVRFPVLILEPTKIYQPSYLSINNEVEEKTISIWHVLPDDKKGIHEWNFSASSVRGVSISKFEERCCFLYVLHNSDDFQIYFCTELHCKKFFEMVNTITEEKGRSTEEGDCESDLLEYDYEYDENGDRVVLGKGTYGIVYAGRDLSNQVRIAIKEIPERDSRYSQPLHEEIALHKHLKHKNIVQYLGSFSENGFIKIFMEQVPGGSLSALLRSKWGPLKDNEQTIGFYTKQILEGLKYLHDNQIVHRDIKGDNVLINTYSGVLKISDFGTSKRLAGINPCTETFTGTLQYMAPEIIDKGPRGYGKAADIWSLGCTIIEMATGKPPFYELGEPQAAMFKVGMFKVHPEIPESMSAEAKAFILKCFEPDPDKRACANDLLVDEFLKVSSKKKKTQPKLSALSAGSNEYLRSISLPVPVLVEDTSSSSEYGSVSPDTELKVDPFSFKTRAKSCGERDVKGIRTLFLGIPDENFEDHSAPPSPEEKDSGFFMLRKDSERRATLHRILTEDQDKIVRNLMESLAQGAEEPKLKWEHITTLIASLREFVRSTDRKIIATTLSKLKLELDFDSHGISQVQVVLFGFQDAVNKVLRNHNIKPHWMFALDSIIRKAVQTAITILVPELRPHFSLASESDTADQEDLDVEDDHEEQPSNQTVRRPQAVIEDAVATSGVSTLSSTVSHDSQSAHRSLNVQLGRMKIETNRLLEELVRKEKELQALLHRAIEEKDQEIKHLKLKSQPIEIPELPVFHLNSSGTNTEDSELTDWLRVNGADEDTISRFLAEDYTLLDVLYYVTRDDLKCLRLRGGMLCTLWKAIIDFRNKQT
Experimental: The plates were incubated at 37° C. overnight. Media on plates was changed to OPTI-MEM, serum free media and cells were transfected with 9 μg of ASK1-V5 tagged full length plasmid using Lipofectamine 2000 (Invitrogen) and the plates were incubated at 37° C. overnight. Cells were trypsinized, counted on Nexcellometer and plated into 96 well tissue culture plates with 100,000 cells/well and 200 μL media. Cells were incubated for 4 hr at 37° C. then ASK1 compounds were added using a HP 300e. Compounds were tested at 20 μM with 3 fold, 10 point dilution points then incubated for 1 hr at 37° C. A lysis buffer (Cell Signaling) was prepared with protease and phosphatase inhibitor and maintained at 4° C. until use. Media from cells was discarded and 120 μL of cold lysis buffer was added to the cells, the plate was shaken 4° C. for 1 hr. Lysate was mixed using Apricot liquid handler; aspirating up and down 16 times at high speed using 50 μL volume. […] Plates were then incubated on a plate shaker overnight at 4° C. Plates were washed 3× with MSD wash buffer and 50 μL of rabbit anti-pASK1 T838 antibody was added to the wells and incubated for 2 hr at room temperature on a plate shaker. Plates were then washed and 50 μL of goat anti-rabbit sulfa-tag (1:500 dilution) was added to wells, and incubated for 1 hr at room temperature on a plate shaker. […] Plates were immediately read on a MSD Instrument Reader where chemoluminecense signal was measured. Data was analyzed using Graph Pad or Genedata, the data was normalized and plotted, % activity versus log of compound concentration. The IC50 values were obtained from a 4 parameter fit.

[3] = 20 μM myelin basic protein (MBP), 10 μM ATP

ASK1/MAP3K5, sequence (Q99683 whole entry): as above

| Compound | IC50 [1] [nM] | IC50 [2] [nM] | IC50 [1, 3] [nM] |
| --- | --- | --- | --- |
| C[C@H]1CCCOc2cc(F)c(OCCN(C)C)cc2C(=O)Nc2cccc(n2)-c2nncn21 [Example 116, (S)-5^5-(2-(Dimethylamino)ethoxy)-5^4-fluoro-10-methyl-1^4H-6-oxa-3-aza-2(2,6)-pyridina-1(3,4)-triazola-5(1,2)-benzenacyclodecaphan-4-one] | < 100 | < 1000 | – |
| Cc1c(-c2cc3c(cc2F)OCCCCn2cnnc2-c2cccc(n2)NC3=O)cnn1C [Example 62, 5^5-(1,5-Dimethyl-1H-pyrazol-4-yl)-5^4-fluoro-1^4H-6-oxa-3-aza-2(2,6)-pyridina-1(3,4)-triazola-5(1,2)-benzenacyclodecaphan-4-one] | – | < 1000 | < 100 |
| (S)-5^4-Bromo-10-methyl-1^4H-6-oxa-3-aza-2(2,6)-pyridina-1(3,4)-triazola-5(1,2)-benzenacyclodecaphan-4-one [Example 120] | – | < 1000 | < 100 |
| C[C@H]1CCCn2cnnc2-c2cccc(n2)NC(=O)c2cc(-c3cnn(CCN(C)C)c3)ccc2O1 [Example 146, (S)-5^5-(1-(2-(Dimethylamino)ethyl)-1H-pyrazol-4-yl)-7-methyl-1^4H-6-oxa-3-aza-2(2,6)-pyridina-1(3,4)-triazola-5(1,2)-benzenacyclodecaphan-4-one] | – | < 1000 | < 100 |
| COC(C)(C)c1ccc2c(c1)C(=O)Nc1cccc(n1)-c1nncn1CCCCO2 [Example 50, 5^5-(2-Methoxypropan-2-yl)-1^4H-6-oxa-3-aza-2(2,6)-pyridina-1(3,4)-triazola-5(1,2)-benzenacyclodecaphan-4-one] | – | < 1000 | < 100 |
| Cc1cn(-c2cc3c(cc2F)OCCCCn2cnnc2-c2cccc(n2)NC3=O)cn1 [Example 66, 5^4-Fluoro-5^5-(4-methyl-1H-imidazol-1-yl)-1^4H-6-oxa-3-aza-2(2,6)-pyridina-1(3,4)-triazola-5(1,2)-benzenacyclodecaphan-4-one] | – | < 1000 | < 100 |
| C[C@H]1CCCn2cnnc2-c2cccc(n2)NC(=O)c2cc(N3CCN(C)CC3)ccc2O1 [Example 140, (S)-7-Methyl-5^5-(4-methylpiperazin-1-yl)-1^4H-6-oxa-3-aza-2(2,6)-pyridina-1(3,4)-triazola-5(1,2)-benzenacyclodecaphan-4-one] | – | < 1000 | < 100 |
| C[C@H]1CCCn2cnnc2-c2cccc(n2)NC(=O)c2cc(C#N)ccc2O1 [Example 150, (S)-7-Methyl-4-oxo-1^4H-6-oxa-3-aza-2(2,6)-pyridina-1(3,4)-triazola-5(1,2)-benzenacyclodecaphane-5^5-carbonitrile] | – | < 1000 | 100 to 1000 |
| CN(C)CCn1cc(-c2cc3c(cc2F)OCC/C=C/Cn2cnnc2-c2cccc(n2)NC3=O)cn1 [Example 178, (E)-5^5-(1-(2-(Dimethylamino)ethyl)-1H-pyrazol-4-yl)-5^4-fluoro-1^4H-6-oxa-3-aza-2(2,6)-pyridina-1(3,4)-triazola-5(1,2)-benzenacycloundecaphan-9-en-4-one] | – | < 1000 | < 100 |
| O=C1Nc2cccc(n2)-c2nncn2CCCCOc2cc(F)c(-c3ccnnc3)cc21 [Example 61, 5^4-Fluoro-5^5-(pyridazin-4-yl)-1^4H-6-oxa-3-aza-2(2,6)-pyridina-1(3,4)-triazola-5(1,2)-benzenacyclodecaphan-4-one] | – | < 1000 | < 100 |
| CN1CC=C(c2ccc3c(c2)OCCCCn2cnnc2-c2cccc(n2)NC3=O)CC1 [Example 78, 5^4-(1-Methyl-1,2,3,6-tetrahydropyridin-4-yl)-1^4H-6-oxa-3-aza-2(2,6)-pyridina-1(3,4)-triazola-5(1,2)-benzenacyclodecaphan-4-one] | < 100 | < 1000 | – |
| C[C@H]1CCCOc2cc(N3CCN(C)CC3)ccc2C(=O)Nc2cccc(n2)-c2nncn21 [Example 122, (S)-10-Methyl-5^4-(4-methylpiperazin-1-yl)-1^4H-6-oxa-3-aza-2(2,6)-pyridina-1(3,4)-triazola-5(1,2)-benzenacyclodecaphan-4-one] | – | < 1000 | < 100 |
| CN1CCN(c2ccc3c(c2)OCCCCn2cnnc2-c2cccc(n2)NC3=O)CC1 [Example 81, 5^4-(4-Methylpiperazin-1-yl)-1^4H-6-oxa-3-aza-2(2,6)-pyridina-1(3,4)-triazola-5(1,2)-benzenacyclodecaphan-4-one] | – | < 1000 | < 100 |
| C[C@@H]1CCCn2cnnc2-c2cccc(n2)NC(=O)c2cc(Br)ccc2O1 [Example 137, (R)-5^5-Bromo-7-methyl-1^4H-6-oxa-3-aza-2(2,6)-pyridina-1(3,4)-triazola-5(1,2)-benzenacyclodecaphan-4-one] | – | 1000 to 10000 | < 100 |
| CN1CCC(c2ccc3c(c2)OCCCCn2cnnc2-c2cccc(n2)NC3=O)CC1 [Example 79, 5^4-(1-Methylpiperidin-4-yl)-1^4H-6-oxa-3-aza-2(2,6)-pyridina-1(3,4)-triazola-5(1,2)-benzenacyclodecaphan-4-one] | – | < 1000 | < 100 |
| N#Cc1cc2c(cc1F)OCCCCn1cnnc1-c1cccc(n1)NC2=O [Example 74, 5^4-Fluoro-4-oxo-1^4H-6-oxa-3-aza-2(2,6)-pyridina-1(3,4)-triazola-5(1,2)-benzenacyclodecaphane-55-carbonitrile] | – | < 1000 | < 100 |
| C[C@@H]1CCCn2cnnc2-c2cccc(n2)NC(=O)c2cc(N3CCN(C)CC3)ccc2O1 [Example 141, (R)-7-Methyl-5^5-(4-methylpiperazin-1-yl)-1^4H-6-oxa-3-aza-2(2,6)-pyridina-1(3,4)-triazola-5(1,2)-benzenacyclodecaphan-4-one] | – | < 1000 | < 100 |
| O=C1Nc2cccc(n2)-c2nncn2CCCCOc2cc(F)c(-c3cncc(C(F)(F)F)c3)cc21 [Example 58, 5^4-Fluoro-5^5-(5-(trifluoromethyl)pyridin-3-yl)-1^4H-6-oxa-3-aza-2(2,6)-pyridina-1(3,4)-triazola-5(1,2)-benzenacyclodecaphan-4-one] | – | < 1000 | < 100 |
| C[C@H]1CCCOc2cc(F)c(-c3cncnc3)cc2C(=O)Nc2cccc(n2)-c2nncn21 [Example 110, (S)-5^4-Fluoro-10-methyl-5^5-(pyrimidin-5-yl)-1^4H-6-oxa-3-aza-2(2,6)-pyridina-1(3,4)-triazola-5(1,2)-benzenacyclodecaphan-4-one] | – | < 1000 | < 100 |
| C[C@@H]1CN(C)CCN1c1ccc2c(c1)OCCCCn1cnnc1-c1cccc(n1)NC2=O [Example 83, (R)-5^4-(2,4-Dimethylpiperazin-1-yl)-1^4H-6-oxa-3-aza-2(2,6)-pyridina-1(3,4)-triazola-5(1,2)-benzenacyclodecaphan-4-one] | – | < 1000 | < 100 |
| C[C@H]1CCCOc2cc(F)c(Br)cc2C(=O)Nc2cccc(n2)-c2nncn21 [Example 101, (S)-5^5-Bromo-5^4-fluoro-10-methyl-1^4H-6-oxa-3-aza-2(2,6)-pyridina-1(3,4)-triazola-5(1,2)-benzenacyclodecaphan-4-one] | – | < 1000 | < 100 |
| O=C1Nc2cccc(n2)-c2nncn2CCCCOc2cc(F)c(N3CCOCC3)cc21 [Example 71, 5^4-Fluoro-5^5-morpholino-1^4H-6-oxa-3-aza-2(2,6)-pyridina-1(3,4)-triazola-5(1,2)-benzenacyclodecaphan-4-one] | – | < 1000 | < 100 |
| O=C1Nc2cccc(n2)-c2nncn2CCCCOc2c(Br)cccc21 [Example 165, 5^3-Bromo-1^4H-6-oxa-3-aza-2(2,6)-pyridina-1(3,4)-triazola-5(1,2)-benzenacyclodecaphan-4-one] | – | 1000 to 10000 | 100 to 1000 |
| COCCOc1cc2c(cc1F)OCCCCn1cnnc1-c1cccc(n1)NC2=O [Example 75, 5^4-Fluoro-5^5-(2-methoxyethoxy)-1^4H-6-oxa-3-aza-2(2,6)-pyridina-1(3,4)-triazola-5(1,2)-benzenacyclodecaphan-4-one] | – | < 1000 | < 100 |
| C[C@@H]1CCCn2cnnc2-c2cccc(n2)NC(=O)c2cc(-c3cnn(CCN(C)C)c3)ccc2O1 [Example 147, (R)-5^5-(1-(2-(Dimethylamino)ethyl)-1H-pyrazol-4-yl)-7-methyl-1^4H-6-oxa-3-aza-2(2,6)-pyridina-1(3,4)-triazola-5(1,2)-benzenacyclodecaphan-4-one] | – | < 1000 | < 100 |
| C[C@H]1CCCn2cnnc2-c2cccc(n2)NC(=O)c2cc(Br)ccc2O1 [Example 136, (S)-5^5-Bromo-7-methyl-1^4H-6-oxa-3-aza-2(2,6)-pyridina-1(3,4)-triazola-5(1,2)-benzenacyclodecaphan-4-one] | – | < 1000 | < 100 |
| Cc1nccn1-c1ccc2c(c1)C(=O)Nc1cccc(n1)-c1nncn1CCCCO2 [Example 43, 5^5-(2-Methyl-1H-imidazol-1-yl)-1^4H-6-oxa-3-aza-2(2,6)-pyridina-1(3,4)-triazola-5(1,2)-benzenacyclodecaphan-4-one] | – | < 1000 | < 100 |
